From patent US20070031347A1, “Powdered Medicaments Containing A Tiotropium Salt and Salmeterol Xinafoate” (Boehringer Ingelheim Pharma GmbH & Co. KG, priority 2002, published 2007)

Test: compacted bulk volume (tapped density, Ph. Eur. 4 / Carr packed bulk density)
Assay type: physicochemical
Protocol: The compacted bulk volume is determined by the test method of the European Pharmacopoeia 4 (2002): “apparent density after settling”/“density of settled product”, identical to the “tapped density”, measured in grams per millilitre) or as the “Carr packed bulk density” according to the ASTM standard (D6393-99, Standard Test Method for Bulk Solids Characterization by Carr Indices), measured in grams per cm^3. The compacted bulk volume is a measurement of the volume which is taken up by solid, comminuted materials after they have been compacted under defined conditions.

## OCc1cc(C(O)CNCCCCCCOCCCCc2ccccc2)ccc1O (centres unmarked) [salmeterol xinafoate]
Crystalline salmeterol xinafoate as obtained from ethanol/tert.butylmethylether, before micronisation
  compacted bulk volume: 0.27 g/mL
Micronised salmeterol xinafoate (air jet mill, grinding pressure 7.5 bar, feed pressure 8.0 bar)
  compacted bulk volume: 0.19 g/mL
